Results: patent US8974830B2, “Particles and contrast agent including the same for optical imaging” (Canon Kabushiki Kaisha, priority 2012, dated 2015)

Experiment: Accumulation rate in popliteal lymph nodes after subcutaneous plantar administration
Format: in vivo, mouse
Conditions: 24 hours after subcutaneous plantar administration, 13 nmol dye
Description: PNP10 prepared in EXAMPLE 10 was administered subcutaneously into the plantar surface of a mouse. Extirpation was performed 24 hours after administration. After homogenization, extraction was performed with an organic solvent to measure the accumulation rate in the popliteal lymph nodes. The amount administered was 13 nmol in terms of the amount of the dye. As a comparative example, an aqueous solution of ICG was also administered, and the accumulation rate was measured. The accumulation rate of PNP10 in the lymph nodes was about 80 times higher than that of ICG.

Accumulation rate in lymph node (% ID): 0.1 % ID
Compound: CC1(C)C(/C=C/C=C/C=C/C=C2\N(CCCCS(=O)(=O)O)c3ccc4ccccc4c3C2(C)C)=[N+](CCCCS(=O)(=O)[O-])c2ccc3ccccc3c21 [ICG, Indocyanine green]
